# According to patent EP0983256B1, “TRIPTOLIDE DERIVATIVES USEFUL IN THE TREATMENT OF AUTOIMMUNE DISEASES” (priority 1997, dated 1998):
# Experiments:
# Jurkat E6-1 cell line = assay: Cell viability (MTT mitochondrial enzyme assay); format: cell-based, human; settings: same cells after removal of supernatant for the IL-2 assay; MTT 4 hours, read at 570 nm
# Procedure: (§1) Jurkat E6-1 cell line (ATCC), a human leukemic T cell line or lymphocytes prepared from fresh human blood, are grown in compiete culture medium consisting of RPMI-1640 (Mediatech) supplemented with 10% v/v fetal bovine serum (HyClone, Logen, Vermont), penicillin (100 units/mL), streptomycin (200 µg/mL), and 2mM L-glutamine (GIBCO, Grand Island, New York). The cells are grown to a concentration of between 1.2 to 1.8 X 10^6 cells/mL before use. The cells are then centrifuged at low speed and resuspended to a concentration of 1.25 X 10^6 cells/mL in fresh medium.
# (§2) The compounds to be tested are dissolved in DMSO, and water is added to make a 50% DMSO/water solution. The compounds are then diluted in sterile water such that the DMSO concentrations are less then 0.05%. The cells at a concentration of 1.25 X 10^6 cells/mL are stimulated with phytohemagglutinin 10 µg/mL (PHA) and 10^-8 M phorbol ester (12-O-tetradecanoylphorbol 13-acetate: TPA), (Sigma, St. Louis, Missouri). The compounds are then added and the cells are plated in flat-bottom tissue culture plates (Falcon, Lincoln Park, New Jersey), with 250,000 cells/well. Plates are then incubated at 37°C under an atmosphere of 5% CO2.
# (§3) After incubation (16-24 hours), the cells are assayed for IL-2 production and cell viability (MTT). IL-2 production is assayed utilizing a solid phase ELISA immunoassay, sold in kit form by R&D Systems, Inc., Minneapolis, Minnesota.
# Cell viability is measured by the use of a mitochondrial enzyme assay. After removal of the supernatant for the IL-2 assay, Cell Titer 96 (a commercial solution of MTT available from Promega, Madison, Wisconsin) is added to the plates and incubated for 4 hours at 37°C. A solubilization solution is then added and incubated overnight. The plates are then read on an ELISA plate reader at a wavelength of 570 nm. Table II presents the results for the Interleukin-2 assay, the cell viability assay and the ratio of cell viability/IL-2 inhibition.
# IL-2 production = assay: Interleukin-2 assay (IL-2 production, ELISA); format: cell-based, human; settings: cells stimulated with PHA 10 µg/mL and 10^-8 M TPA; incubation 16-24 hours
# Procedure: as §1, §2, §3
Compound,IC50/MTT (Jurkat E6-1 cell line),IC50/IL-2 (IL-2 production)
"CC(C)[C@]1(O)C=C[C@@]2(O)[C@@]3(C)CCC4=C(COC4=O)C3CC[C@@]2(O)[C@@H]1O (stereo partly drawn) [Example 2, [5aR-(5aα,6α,7β,9aα,9bα)]-3b,4,5,5a,6,7,9a,9b,10,11-decahydro-5a,6,7,9a-tetrahydroxy-9b-methyl-7-(1-methylethyl)-phenanthro[1,2-c]furan-1(3H)-one]",90 ng/mL,14 ng/mL
"[5aS-(5aα,5bα,8β,9α,9aR*,10aβ)]-4,5a,5b,8,9,10a,11,11a-octahydro-5b,8,9-trihydroxy-5a-methyl-8-(1-methylethyl)-1H-oxireno[8a,9]phenanthro[1,2-c]furan-3(5H)-one [Example 1]",">>1,000 ng/mL","1,000 ng/mL"
"[5R-(5α,5aβ,6β,7α,9aβ,9bβ)]-3b,4,5,5a,6,7,9a,10,11-decahydro-5a,6,9a-trihydroxy-9b-methyl-7-(1-methylethyl)-5,7-epoxyphenanthro[1,2-c]furan-1(3H)-one [Example 3]",">>1,000 ng/mL",500 ng/mL
